Converted amounts (≈) assume the structure as drawn. Blank lines part the entries; values can stand above or below the compound they belong to.
How the values were obtained:
Assay in all cases: ≥ marks a high value that may be exact or a test limit, other limits are often not marked, values filed in µg/mL are converted to µM
[1] = test system: Aeromonas hydrophila BCRC 13018
[2] = test system: Enterococcus faecalis BCRC 10066
[3] = test system: Helicobacter pylori ATCC 43504
[4] = test system: Helicobacter pylori ATCC 43629
[5] = test system: Helicobacter pylori ATCC 700392
[6] = test system: Helicobacter pylori
[7] = test system: Pseudomonas aeruginosa ATCC 19660
[8] = test system: Streptococcus agalactiae 819
[9] = test system: Streptococcus agalactiae BCRC 10787
[10] = test system: Vibrio alginolyticus
[11] = test system: Vibrio vulnificus 204
[12] = test system: Bacillus magaterium AB90008
[13] = test system: Candida tropicalis AY91009
[14] = test system: Enterobacter cloacae AB2010162
[15] = test system: Enterococcus sp. S13
[16] = test system: Escherichia coli DH5alpha
[17] = test system: Klebsiella oxytoca AB2010143
[18] = test system: Micrococcus luteus AB2010179
[19] = test system: Pseudomonas putida
[20] = test system: Salmonella enterica AB2010185
[21] = test system: Staphylococcus aureus 16472
[22] = test system: Staphylococcus aureus AB94004
[23] = test system: Candida albicans CIB 45437
[24] = test system: Escherichia coli ATCC 25922
[25] = test system: Escherichia coli CIB 84492
[26] = test system: Staphylococcus aureus ATCC 25923
[27] = test system: Staphylococcus aureus CIB 85462
[28] = test system: Bacillus subtilis ATCC 9372
[29] = test system: Escherichia coli ATCC 8739
[30] = test system: Proteus vulgaris NCTC 4635
[31] = test system: Pseudomonas aeruginosa ATCC 9027
[32] = test system: Staphylococcus aureus ATCC 6538
[33] = test system: Acinetobacter baumannii Ab11
[34] = test system: Acinetobacter baumannii CR17
[35] = test system: Acinetobacter baumannii CR86
[36] = test system: Escherichia coli ATCC 11303
[37] = test system: Escherichia coli BL21
[38] = test system: Escherichia coli KpC+001812446
[39] = test system: Klebsiella pneumoniae ATCC 13883
[40] = test system: Klebsiella pneumoniae KpC+001825971
[41] = test system: Pseudomonas aeruginosa PAO1
[42] = test system: Staphylococcus aureus ATCC 259230
[43] = test system: Staphylococcus aureus ATCC 6538P
[44] = test system: Staphylococcus aureus ATCC BAA-41
[45] = test system: Staphylococcus epidermidis
[46] = test system: Batrachochytrium dendrobatidis JEL-197
[47] = test system: Candida albicans ATCC 90028
[48] = test system: Escherichia coli ATCC 25726

MIC [23]: ≥ 62.9 µM
MIC [24]: 15.7 µM (≈ 32 µg/mL)
MIC [25]: 15.7 µM (≈ 32 µg/mL)
MIC [26]: 15.7 µM (≈ 32 µg/mL)
MIC [27]: 7.86 µM (≈ 16 µg/mL)
Structure (SMILES): CC[C@H](C)[C@H](NC(=O)CN)C(=O)N[C@@H](Cc1ccccc1)C(=O)NCC(=O)N[C@@H](CCCCN)C(=O)N[C@H](C(=O)N[C@@H](CC(C)C)C(=O)NCC(=O)N[C@@H](C)C(=O)NCC(=O)N[C@@H](CCCCN)C(=O)N[C@@H](CCCCN)C(=O)N[C@H](C(=O)N[C@@H](CC(C)C)C(=O)N[C@H]1CSSC[C@@H](C(=O)O)NC(=O)[C@H](CC(C)C)NC(=O)CNC(=O)[C@H](CO)NC(=O)[C@H](CC(C)C)NC(=O)CNC1=O)C(C)C)[C@@H](C)CC [GIFGKILGAGKKVLCGLSGLC]

MIC [33]: ≥ 42 µM
MIC [34]: 10.5 µM (≈ 16 µg/mL)
MIC [35]: 21 µM (≈ 31.9 µg/mL)
Structure (SMILES): CC[C@H](C)[C@H](NC(C)=O)C(=O)N[C@@H](CC(N)=O)C(=O)N[C@@H](CC(C)C)C(=O)N[C@@H](CCCCN)C(=O)N[C@@H](C)C(=O)N[C@@H](CC(C)C)C(=O)N[C@@H](C)C(=O)N[C@@H](C)C(=O)N[C@@H](CC(C)C)C(=O)N[C@@H](C)C(=O)N[C@@H](CCCCN)C(=O)N[C@@H](CCCCN)C(=O)N[C@H](C(=O)N[C@@H](CC(C)C)C(N)=O)[C@@H](C)CC [INLKALAALAKKIL]

MIC [36]: ≥ 50 µM
MIC [24]: 5 µM (≈ 8.86 µg/mL)
MIC [37]: 0.707 µM (≈ 1.25 µg/mL)
MIC [38]: 5 µM (≈ 8.86 µg/mL)
MIC [39]: ≥ 36 µM
MIC [40]: 9 µM (≈ 15.9 µg/mL)
MIC [41]: 2.83 µM (≈ 5.01 µg/mL)
MIC [42]: ≥ 50 µM
MIC [43]: 1 µM (≈ 1.77 µg/mL)
MIC [44]: 1.41 µM (≈ 2.5 µg/mL)
MIC [45]: 0.707 µM (≈ 1.25 µg/mL)
Structure (SMILES): CC[C@H](C)[C@H](NC(=O)[C@H](CCCCN)NC(=O)[C@H](CCCCN)NC(=O)[C@H](Cc1ccccc1)NC(=O)[C@H](CC(C)C)NC(=O)[C@H](CCCCN)NC(=O)[C@H](Cc1c[nH]c2ccccc12)NC(=O)[C@@H](N)CCCCN)C(=O)NCC(=O)N[C@@H](C)C(=O)N[C@H](C(=O)N[C@@H](CC(C)C)C(=O)N[C@@H](CCCCN)C(=O)N[C@H](C(=O)N[C@@H](CC(C)C)C(=O)O)C(C)C)C(C)C [KWKLFKKIGAVLKVL]

MIC [46]: 25 µM (≈ 41.2 µg/mL)
MIC [47]: ≥ 50 µM
MIC [48]: ≥ 100 µM
MIC [26]: 50 µM (≈ 82.5 µg/mL)
Structure (SMILES): CC[C@H](C)[C@H](NC(=O)[C@H](Cc1ccccc1)NC(=O)[C@H](CCCCN)NC(=O)[C@H](CCCCN)NC(=O)[C@H](C)NC(=O)[C@H](CC(C)C)NC(=O)[C@H](CC(N)=O)NC(=O)[C@@H](NC(=O)[C@H](CC(C)C)NC(=O)[C@@H](NC(=O)[C@H](CC(=O)O)NC(=O)[C@H](CC(C)C)NC(=O)[C@H](Cc1ccccc1)NC(=O)[C@@H](N)CC(N)=O)[C@@H](C)O)[C@@H](C)CC)C(N)=O [NFLDTLINLAKKFI]

Second part, the compound before the results:

Structure (SMILES): CC(C)C[C@H](NC(=O)[C@@H](NC(=O)[C@H](CO)NC(=O)[C@H](CC(=O)O)NC(=O)[C@H](Cc1c[nH]c2ccccc12)NC(=O)[C@H](CC(=O)O)NC(=O)[C@@H](N)Cc1ccccc1)C(C)C)C(=O)N[C@@H](CCCCN)C(=O)NCC(=O)N[C@H](C(=O)N[C@@H](CCC(=O)O)C(=O)NCC(=O)N[C@@H](Cc1ccccc1)C(=O)N[C@H](C(=O)N[C@@H](CCCN=C(N)N)C(=O)NCC(=O)N[C@@H](Cc1ccc(O)cc1)C(=O)N[C@@H](Cc1ccccc1)C(N)=O)C(C)C)C(C)C [FDWDSVLKGVEGFVRGYF]
MIC [1]: 11.1 µM (≈ 23.6 µg/mL)
MIC [2]: 11.1 µM (≈ 23.6 µg/mL)
MIC [3]: 5.66 µM (≈ 12 µg/mL)
MIC [4]: 5.66 µM (≈ 12 µg/mL)
MIC [5]: 5.66 µM (≈ 12 µg/mL)
MIC [6]: 5.66 µM (≈ 12 µg/mL)
MIC [7]: 11.1 µM (≈ 23.6 µg/mL)
MIC [8]: 11.1 µM (≈ 23.6 µg/mL)
MIC [9]: 11.1 µM (≈ 23.6 µg/mL)
MIC [10]: 11.1 µM (≈ 23.6 µg/mL)
MIC [11]: 11.1 µM (≈ 23.6 µg/mL)

Structure (SMILES): CC[C@H](C)[C@H](NC(=O)CNC(=O)[C@H](CC(N)=O)NC(=O)[C@H](Cc1c[nH]c2ccccc12)NC(=O)[C@@H](NC(=O)[C@@H](NC(=O)[C@H](CO)NC(=O)[C@H](CC(C)C)NC(=O)[C@@H](N)Cc1ccccc1)[C@@H](C)O)[C@@H](C)CC)C(=O)N[C@@H](CCCCN)C(=O)N[C@@H](CO)C(=O)N[C@@H](CC(C)C)C(=O)N[C@@H](CC(C)C)C(=O)O [FLSTIWNGIKSLL]
MIC [12]: 6 µM (≈ 8.95 µg/mL)
MIC [13]: 17 µM (≈ 25.4 µg/mL)
MIC [14]: ≥ 87 µM
MIC [15]: 4 µM (≈ 5.97 µg/mL)
MIC [16]: ≥ 36 µM
MIC [17]: ≥ 87 µM
MIC [18]: 8 µM (≈ 11.9 µg/mL)
MIC [19]: ≥ 87 µM
MIC [20]: ≥ 84 µM
MIC [21]: 12 µM (≈ 17.9 µg/mL)
MIC [22]: 16 µM (≈ 23.9 µg/mL)

Structure (SMILES): CC[C@H](C)[C@H](NC(=O)[C@@H](NC(=O)[C@@H](NC(=O)[C@H](CC(=O)O)NC(=O)[C@H](Cc1ccccc1)NC(=O)[C@H](CC(C)C)NC(=O)CN)C(C)C)C(C)C)C(=O)NCC(=O)NCC(=O)N[C@@H](CC(C)C)C(=O)O [GLFDVVIGGL]
MIC [28]: ≥ 1040 µM
MIC [29]: ≥ 1040 µM
MIC [30]: ≥ 1040 µM
MIC [31]: > 1040 µM
MIC [32]: > 1040 µM
